Assay in all cases: NCI-60 cell line screen, 48 h
The subject of test [1] is HL-60.
Test [2] has as its system NCI/ADR-RES.
Test [3] concerns HCT-15.
The test system of test [4] is SK-MEL-5.
For test [5], the system named is SF-539.
For test [6], the system named is CCRF-CEM.
In test [7] the test system is Malme-3M.
Test [8] concerns HOP-62.
Test [9] relates to SN12C.
The test system of test [10] is BT-549.
In test [11] the test system is MDA-MB-435.
The test system of test [12] is SNB-75.
In test [13] the test system is OVCAR-4.
Test [14] relates to U-251.
The subject of test [15] is SK-OV-3.
For test [16], the system named is IGROV-1.
The subject of test [17] is EKVX.
Test [18] has as its system OVCAR-5.
Test [19] has as its system NCI-H460.
The subject of test [20] is RPMI-8226.

Structures are written as SMILES.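 Growth conditions: 96-well plates. Treatment: test compound, 48 hours, 5 concentrations. Analysis: linear interpolation between bracketing concentrations; unreached endpoints set to highest concentration. GI50 is the concentration that inhibits growth by half.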 Activity calls are given as the source filed them. Rule as the data show it: active = GI50 up to about 1.1 µM and inactive = higher. Bounds are passed on as bounds.

As to `COC1(CC[C@H](C)COC2OC(CO)C(O)C(O)C2O)O[C@H]2C[C@H]3[C@@H]4CC=C5C[C@@H](OC6OC(CO)C(O)C(OC7OC(CO)C(O)C(O)C7O)C6OC6OC(C)C(O)C(O)C6O)CC[C@]5(C)[C@H]4CC[C@]3(C)[C@H]2[C@@H]1C` (stereo not given in full), the GI50 is 3.12 µM (inactive) in test [1]; 9.44 µM (inactive) in [2]; 2.96 µM in [3]; 5.27 µM (inactive) in [4]; 2.17 µM (inactive) in [5]; 3.17 µM (inactive) in test [6]. Moreover, the GI50 was 2.5 µM (inactive) in [7]; 5.51 µM (inactive) in test [8]; 5.41 µM (inactive) in test [9]; 7.6 µM (inactive) in test [10]; 1.87 µM (inactive) in [11]; 2.55 µM (inactive) in test [12]. The GI50 in [13] is 5.28 µM (inactive); in [14], 2.12 µM (inactive); in [15] it was 12.1 µM (inactive); in test [16] it was 3.73 µM (inactive); in [17], 15.9 µM (inactive); in [18] it was 6.07 µM (inactive). Besides, the GI50 in test [19] is 3.62 µM (inactive); in test [20], 2.54 µM (inactive).

On to `O=C1c2c(ccc3c2CCC3)CC1Cc1ccc2c(c1)CCC2` (stereo not given), for which the GI50 in test [1] is 4.69 µM (inactive); in test [2] it was 28.2 µM (inactive); in test [3], 11 µM; in test [4], 12.5 µM (inactive); in test [5], 91 µM (inactive); in test [6], 14.5 µM (inactive). Further, the GI50 in test [7] was 28.8 µM (inactive); in test [8], 28.1 µM (inactive); in test [9], 23.4 µM (inactive); in [10] it was 51.6 µM (inactive); in test [11], 24 µM (inactive); in test [12] it was 7.38 µM (inactive). The GI50 in test [13] is 27.5 µM (inactive); in test [14] it was 24.2 µM (inactive); in test [15] it was 53.3 µM (inactive); in test [16] it was 28.6 µM (inactive); in [17], 28.1 µM (inactive); in test [18], 90.2 µM (inactive). The GI50 in test [19] was 33.8 µM (inactive); in [20], 9.91 µM (inactive).

In the case of `O=C(/C=C(O)/C(=C/C(=O)c1ccccc1)NN=C(c1ccccc1)c1ccccc1)c1ccccc1`, the GI50 in [1] is 1.57 µM (inactive); in test [2] it was 18.9 µM (inactive); in test [3] it was 23.5 µM; in test [4] it was 18.7 µM (inactive); in test [5], 37.5 µM (inactive); in test [6], 3.3 µM (inactive). Also, the GI50 is 25.2 µM (inactive) in [7]; 21 µM (inactive) in test [8]; 30.2 µM (inactive) in [9]; 31.2 µM (inactive) in test [10]; 31 µM (inactive) in test [11]; 49.7 µM (inactive) in test [12]. Also, the GI50 in [13] was 38.4 µM (inactive); in test [14] it was 26.7 µM (inactive); in [15], 25.8 µM (inactive); in test [16] it was 36.9 µM (inactive); in [17], > 100 µM (inactive); in test [18], > 100 µM (inactive). In addition, the GI50 in test [19] is 24 µM (inactive); in test [20], 24.4 µM (inactive).

`CC(=O)N1NC(c2ccccc2)=NC(=O)C1c1cc(C)c(O)c(C)c1` (stereo not given): the GI50 in test [1] was > 100 µM (inactive); in test [2], 21.9 µM (inactive); in test [3] it was 40 µM; in test [4], 20.3 µM (inactive); in [5] it was 20.4 µM (inactive); in [6], > 100 µM (inactive). The GI50 in test [7] was 17.7 µM (inactive); in [8], 16.2 µM (inactive); in test [9], 27.5 µM (inactive); in test [10] it was 23 µM (inactive); in test [11] it was 64.4 µM (inactive); in test [12], 19.9 µM (inactive). In addition, the GI50 in [13] is 19.8 µM (inactive); in [14], 19.2 µM (inactive); in [15], 18.7 µM (inactive); in test [16], 26.9 µM (inactive); in test [17], 34 µM (inactive); in test [18] it was 36.2 µM (inactive). Besides, the GI50 was 31.1 µM (inactive) in [19] and 52.7 µM (inactive) in test [20].

Take `CC(NNC(=O)c1ccncc1)c1ccc(Cl)cc1Cl` (stereo not given): the GI50 in test [1] was 46.5 µM (inactive); in test [2], 93.8 µM (inactive); in [3], 65.6 µM; in test [4], 67.3 µM (inactive); in test [5], > 100 µM (inactive); in [6] it was 49.4 µM (inactive). Further, the GI50 is > 100 µM (inactive) in [7]; 88.5 µM (inactive) in [8]; > 100 µM (inactive) in test [9]; > 100 µM (inactive) in test [10]; > 100 µM (inactive) in test [11]; > 100 µM (inactive) in test [12]. Also, the GI50 in test [13], in [14], in [15], in test [16], in [17] and in test [18] was > 100 µM (inactive) throughout. The GI50 is 51.2 µM (inactive) in test [19] and 77.8 µM (inactive) in [20].

As to `N=C(N)NC1C(O)C(O)C(O)C(NC(=N)N)C1O` (stereo not given), the GI50 in [1] was > 100 µM (inactive); in test [2] it was > 100 µM (inactive); in [3], over 100 µM; in test [4], > 100 µM (inactive); in test [5], > 100 µM (inactive); in test [6], > 100 µM (inactive). Besides, the GI50 in test [7], in [8], in [9], in [10], in test [11] and in test [12] was > 100 µM (inactive) throughout. Besides, the GI50 in test [13], in test [14], in test [15], in [16], in test [17] and in test [18] was > 100 µM (inactive) throughout. Besides, the GI50 in test [19] and in test [20] was > 100 µM (inactive) each time.

`CC(C)(C)[C@@H]1NC(=O)CN1C(=O)OCc1ccccc1`: the GI50 in test [1] was > 100 µM (inactive); in test [2] it was > 100 µM (inactive); in [3] it was over 100 µM; in test [4] it was > 100 µM (inactive); in test [5] it was > 100 µM (inactive); in [6] it was > 100 µM (inactive). Also, the GI50 in test [7], in [8], in test [9], in [10], in test [11] and in [12] was > 100 µM (inactive) throughout. Also, the GI50 in [13], in test [14], in test [15], in test [16], in [17] and in test [18] was > 100 µM (inactive) each time. Further, the GI50 in test [19] and in test [20] was > 100 µM (inactive) each time.

In the case of `O=C1CCSC(=S)N1c1ccc(Br)c(Cl)c1`, the GI50 in test [1] was 26 µM (inactive); in test [2], 42.9 µM (inactive); in [3], 20.4 µM; in [4] it was 18.4 µM (inactive); in [5] it was 33 µM (inactive); in [6] it was 60.5 µM (inactive). Moreover, the GI50 is 22.9 µM (inactive) in test [7]; 31.9 µM (inactive) in test [8]; 41.2 µM (inactive) in test [9]; 21.1 µM (inactive) in test [10]; 26.8 µM (inactive) in test [11]; 25.5 µM (inactive) in test [12]. Further, the GI50 was 22.2 µM (inactive) in [13]; 27.1 µM (inactive) in test [14]; 37.6 µM (inactive) in test [15]; 24.8 µM (inactive) in test [16]; 44.8 µM (inactive) in [17]; 43.9 µM (inactive) in [18]. Also, the GI50 in test [19] was 21.8 µM (inactive); in test [20], 33.7 µM (inactive).

Consider `O=C1C(NS(=O)(=O)c2ccccc2)=C(n2ccnc2)C(=O)c2ccccc21`, for which the GI50 in test [1] was > 100 µM (inactive); in [2], > 100 µM (inactive); in test [3] it was over 100 µM; in [4], > 100 µM (inactive); in test [5], > 100 µM (inactive); in test [6], > 100 µM (inactive). Also, the GI50 in test [7] is 96.4 µM (inactive); in test [8], > 100 µM (inactive); in [9], > 100 µM (inactive); in test [10] it was > 100 µM (inactive); in test [11], > 100 µM (inactive); in test [12], 4.44 µM (inactive). Further, the GI50 in test [13], in test [14], in [15], in [16], in [17] and in test [18] was > 100 µM (inactive) in each case. The GI50 in test [19] and in test [20] was > 100 µM (inactive) throughout.

As to `CCCCCCCCCCCCOP(=O)(O)OP(=O)(O)OCC1OC(n2cc(C)c(=O)[nH]c2=O)CC1O` (stereo not given), the GI50 is > 100 µM (inactive) in [1]; > 100 µM (inactive) in [2]; over 100 µM in [3]; > 100 µM (inactive) in [4]; > 100 µM (inactive) in test [5]; > 100 µM (inactive) in test [6]. Further, the GI50 in test [7], in test [8], in test [9], in test [10], in test [11] and in test [12] was > 100 µM (inactive) each time. The GI50 in test [13], in [14], in test [15], in test [16], in test [17] and in test [18] was > 100 µM (inactive) throughout. The GI50 in [19] and in [20] was > 100 µM (inactive) in each case.

These data come from ChEMBL document CHEMBL1201862, “PubChem BioAssay data set” (2004).
